Consider 2 compounds from patent US20050288379A1, “Benzoquinone compounds as anti-cancer agents” (priority 2004, published 2005).

SMILES strings stand for the structures.

The subject of the assay is Human cancer cell lines Eca-109, AGS, BGC-823, DU145, SPC-A-1, Caco-2, LS-174T, A375, Raji, MCF-7, Bcap-37, HepG2. Nature of the assay: In vitro MTT assay of inhibition of cancer cell growth. The format is cell-based. The following applies: 12 human cancer cell lines, 48 hrs incubation, IqA 0.3-100 μg/ml, IqB 0.03-10 μg/ml, absorbance 492 nm, IC50 values calculated but not given. Here is the method:
An in vitro assay was conducted to evaluate the efficacy of IqA and IqB in inhibiting the growth of cancer cells.
Human cancer cell lines, i.e., Eca-109 (esophagus carcinoma cell line), AGS and BGC-823 (gastric adenocarcinoma cell lines), DU145 (prostate carcinoma cell line), SPC-A-1 (lung adenocarcinoma cell line), Caco-2 and LS-174T (colonic carcinoma cell lines), A375 (malignant melanoma cell line), Raji (Burkitt's lymphoma cell line), MCF-7 and Bcap-37 (breast carcinoma cell lines), HepG2 (hepatoma cell line), were purchased from the Cell Bank of Shanghai Institute of Cell Biology, Chinese Academy of Sciences, and cultured in Iscove's Modified Dulbecco's Medium (IMDM) containing 10% fetal bovine serum (FBS) in an incubator at 37° C. under 5% CO2. Cells of 70-80% confluence were trypsinized, resuspended in IMDM medium containing 10% FBS at 1×10^5 cells/ml, and seeded in 96-well plates (100 μl in each well). The plates were incubated at 37° C. under 5% CO2 overnight.
IqA and IqB were provided by Shandong Xinhua Pharmaceutical CO. Ltd. IqA and IqB stock solutions were prepared at the concentrations of 10 mg/ml and 1 mg/ml in dimethyl sulfoxide (DMSO), respectively. The IqA solution was diluted with the growth medium into a series of solutions at different concentrations. […]
150 μl of DMSO was added to each well. […] Absorbance was measured at 492 nm using a microplate reader. […]

For `CCCCCC/C=C\CCCCCCCCCC1=CC(=O)C=C(OC)C1=O` [IqA, irisqinone A], the “inhibition of the proliferation of cancer cells” value is given as “effectively inhibited the proliferation”.
Regarding `CCCCCCCCCCCCCCCCCC1=CC(=O)C=C(OC)C1=O` [IqB, irisquinone B], the “inhibition of the proliferation of cancer cells” value is “effectively inhibited the proliferation”.
